Structures are written as SMILES.

The source of these data is article PMC6934184, “Selective DNA-PKcs inhibition extends the therapeutic index of localized radiotherapy and chemotherapy” (The Journal of Clinical Investigation, 2019).

This assay has as its target T1, MAPK3 (ERK1) (Homo sapiens, UniProt P27361).
T1 construct: purchased Thermo Fisher Scientific (Life Technologies) SelectScreen
The experiment in a line: SelectScreen Z'LYTE. Format: biochemical. In outline:
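NU5455 was profiled across the SelectScreen Broad panel of kinase activity and binding assays. Z'LYTE reactions such as CSF1R ran at apparent Km ATP, while the Adapta CAMK1 assay used ATP listed as 10. Values are given as percent.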

T1 sequence (P27361 whole entry): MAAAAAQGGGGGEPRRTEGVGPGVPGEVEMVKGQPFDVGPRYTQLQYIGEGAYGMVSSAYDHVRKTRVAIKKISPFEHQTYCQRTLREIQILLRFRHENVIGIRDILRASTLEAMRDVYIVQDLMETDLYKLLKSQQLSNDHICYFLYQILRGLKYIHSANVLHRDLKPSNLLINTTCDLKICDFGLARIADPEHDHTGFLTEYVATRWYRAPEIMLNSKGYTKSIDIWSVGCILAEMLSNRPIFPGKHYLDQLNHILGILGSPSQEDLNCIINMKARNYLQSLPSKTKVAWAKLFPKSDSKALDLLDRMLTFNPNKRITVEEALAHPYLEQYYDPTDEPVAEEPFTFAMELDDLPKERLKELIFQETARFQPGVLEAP

By inhibition is commonly meant the share of the control response that was lost under treatment. A lower inhibition goes with a response near the control. The compound `CN(C(=O)CN1CCOCC1)c1ccc2sc3c(-c4cccc5c(=O)cc(N6CC7CCC(C6)O7)oc45)cccc3c2c1` [NU5455] gave an inhibition at 1 µM of 9.5%.
